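Following 48 hours of exposure in 96-well plates, responses at five concentrations were used to interpolate endpoints linearly. The concentration for 50% growth inhibition is given as GI50. At the TGI there is no net growth.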
Assays:
Assay in all cases: NCI anticancer screen, dose series, 48 h
[1] = tested on: HOP-18 NSCLC
[2] = tested on: M19-MEL melanoma
[3] = tested on: LOX IMVI melanoma
[4] = tested on: MDA-MB-435
[5] = tested on: MCF7 breast
[6] = tested on: NCI-H226 lung
[7] = tested on: HS 578T breast
[8] = tested on: CAKI-1 renal
[9] = tested on: NCI/ADR-RES ovarian
[10] = tested on: XF 498 CNS

| SMILES | TGI [3] [µM] | TGI [4] [µM] | TGI [5] [µM] | TGI [6] [µM] | TGI [7] [µM] | TGI [8] [µM] | TGI [9] [µM] | further results |
| --- | --- | --- | --- | --- | --- | --- | --- | --- |
| c1ccc(-n2cnnc2-c2nsc3ccccc23)cc1 | > 100 | – | – | – | – | – | – | TGI [1]: > 100 µM; TGI [2]: > 100 µM |
| C=C1C(=O)OC2/C=C(\C)C(=O)CC3OC(C)(C)OC3(C)CC(OC(=O)/C(C)=C/C)C12 (centres undefined) | 27.3 | > 68.2 | > 47.1 | 63.6 | > 100 | 10.3 | – | – |
| CCN(CC)C(=S)SC(=S)N(CC)CC | 58.9 | > 100 | > 100 | > 100 | > 100 | 99.7 | > 100 | – |
| Cc1ccc(P(c2ccc(C)cc2)c2ccc(C)cc2)cc1 | 30.4 | 41.1 | > 100 | – | 57 | 98.5 | > 100 | – |
| COc1cc(C(C)(C)C)cc(OC)c1C(O)(c1c(OC)cc(C(C)(C)C)cc1OC)c1c(OC)cc(C(C)(C)C)cc1OC | 1.45 | 0.974 | – | – | – | – | – | GI50 [4]: 306 nM; GI50 [7]: 711 nM; GI50 [3]: 357 nM |
| Nc1nc(N)c2ncn(-c3ccc(Cl)c(Cl)c3)c2n1 | – | > 100 | > 100 | > 100 | 42.4 | > 100 | > 100 | – |
| C=C(CN(C)C)C(=O)c1ccc(C)cc1C | 15.2 | 17.1 | 13.9 | 34.5 | > 79 | 8.39 | 40.3 | TGI [10]: 27.6 µM; TGI [1]: 30.3 µM; TGI [2]: 43.1 µM |
| Nc1ccc(OCC(O)N2C(=O)c3ccccc3C2=O)cc1 (centres undefined) | > 100 | > 100 | > 100 | – | – | – | > 100 | – |
| CCN=C=NCCCN(C)C | > 100 | > 100 | > 100 | > 100 | > 100 | > 100 | > 100 | – |
| CN1CCC(C(=O)NNc2ccccc2)CC1 | 11.3 | – | – | > 100 | – | > 100 | – | TGI [10]: > 100 µM; TGI [1]: > 100 µM; TGI [2]: > 79.7 µM |
| N=C(N)c1ccc(-c2ccc(-c3cncc4ccccc34)s2)cc1F | – | 3.49 | – | – | – | 2.91 | – | GI50 [4]: 1860 nM; GI50 [8]: 1520 nM |
| COc1ccc2[nH]c3c([N+](=O)[O-])ccc(Cl)c3c(=O)c2c1 | 34.5 | > 55.8 | > 84.8 | > 100 | > 100 | 49.5 | > 71.2 | – |
| C=C(C)C(=O)OC1C(C(C)CCCO)=C(CO)CC2OC(=O)C(=C)C21 (centres undefined) | 24.5 | 52.1 | 24.1 | > 100 | > 100 | 31.3 | > 100 | – |
| OC(Cc1ccccc1)(Cc1ccccc1)c1ccccc1 | 37.1 | 33.4 | – | 34.2 | – | 47.7 | 71.6 | – |
| C=C1CC23CCC4C(C)(C(=O)O)CCCC4(C)C2CCC1C3 (centres undefined) | > 100 | > 100 | > 100 | > 100 | > 100 | > 100 | – | – |
| COC1/C=C\OC2(C)Oc3c(C)c(O)c4c(O)c(c(/C=N\OCCCc5ccccc5)c(O)c4c3C2=O)NC(=O)/C(C)=C\C=C/C(C)C(O)C(C)C(O)C(C)C(OC(C)=O)C1C (centres undefined) | 10.2 | 9.28 | 5.6 | 7.09 | 25.2 | 15.2 | 13.4 | – |
| CC(C)(C)C1(c2ccc(C3(c4ccccc4)Oc4ccccc4S3)[nH]2)Oc2ccccc2S1 (centres undefined) | > 100 | – | – | > 100 | – | > 100 | – | TGI [10]: > 100 µM; TGI [1]: > 100 µM; TGI [2]: > 100 µM |
| O=[N+]([O-])c1ccc(/C=N\Nc2ccc([N+](=O)[O-])cn2)cc1 | – | > 100 | > 100 | > 100 | > 100 | – | > 100 | – |
| C[C@H](C(=O)N[C@@H](Cc1ccc(-c2ccccc2)cc1)C(=O)NC1CC(C)(C)N(C)C(C)(C)C1)c1ccc(-c2ccccc2)c(F)c1 | – | 2.56 | – | – | – | – | 4.19 | GI50 [9]: 1770 nM; GI50 [4]: 1290 nM |
| O=S(=O)(O)c1cc(N=Nc2cc(S(=O)(=O)O)c3ccccc3c2O)ccc1/C=C/c1ccc(N=Nc2cc(S(=O)(=O)O)c3ccccc3c2O)cc1S(=O)(=O)O | > 461 | 258 | > 1000 | 594 | 756 | > 756 | > 1000 | GI50 [10]: > 1 mM; TGI [10]: > 1000 µM; GI50 [2]: > 1 mM; TGI [2]: > 1000 µM |
| CC(C)=CCc1c(O)ccc2c1OC1c3ccc(O)c(CC=C(C)C)c3OCC21 (centres undefined) | 22.3 | – | 16.9 | 30.7 | – | 25 | 32.2 | TGI [10]: 32.6 µM; TGI [1]: 33.3 µM; TGI [2]: 24.2 µM |
| C[N+]1(C)CCOC(O)(c2ccccc2)C1 (centres undefined) | > 100 | > 100 | > 100 | > 100 | > 100 | > 100 | > 100 | – |
| C=C(C)C1CC2=C(O1)C(=O)c1ccccc1C2=O (centres undefined) | > 100 | – | – | – | – | 31.7 | – | TGI [10]: 32.2 µM |
| C=C(C)[C@@H]1CC[C@]2(C(=O)Nc3ccccn3)CC[C@]3(C)[C@H](CC[C@@H]4[C@@]5(C)CCCNC(C)(C)[C@@H]5CC[C@]43C)[C@@H]12 | – | – | 3.07 | 33.4 | 4.42 | 2.93 | 4.14 | GI50 [9]: 1930 nM; GI50 [5]: 1480 nM; GI50 [6]: 5.31 µM; GI50 [7]: 1920 nM; GI50 [8]: 1550 nM |
| C=C1C(=O)CCC1C(=O)O (centres undefined) | > 100 | > 100 | > 100 | > 100 | > 100 | – | > 100 | – |
| O=Nc1ccc(O)c2ncccc12 | 18.6 | 3.83 | 16.6 | 42.8 | 3.66 | 31.1 | 18.3 | TGI [1]: 51.8 µM; TGI [2]: 16.4 µM |
| C/C1=N\NC(=O)c2ccccc2C(=O)N/N=C(\C)c2cccc1n2.O=[N+]([O-])[O-].[Zn+2] | – | – | – | – | – | > 100 | – | TGI [1]: > 100 µM |
| Nc1cc(S(=O)(=O)O)cc2cc(S(=O)(=O)O)c(N=Nc3ccc(-c4ccc(N=Nc5c(S(=O)(=O)O)cc6cc(S(=O)(=O)O)cc(N)c6c5O)cc4)cc3)c(O)c12 | > 100 | – | > 100 | > 100 | – | – | > 100 | TGI [10]: > 100 µM; TGI [1]: > 100 µM; TGI [2]: > 100 µM |

Reference: PubChem BioAssay (NCI)
